# Values quoted from earlier work in patent publication US12268699B2, “Transdermal delivery of tetrahydrocannabinol” (Pike Therapeutics Inc., priority 2019, dated 2025).
# Read-outs that look alike come from different tables or passages of the source.
# Key:
# [1] = test system: complete Freund's adjuvant-induced monoarthritic knee join mode; conditions: transdermal
# CB2 receptor over CB1 = conditions: given as ×, -fold or times
# [2] = in 96 hrs. with 6% Brij O20
# CB2 = CB2 (Homo sapiens, UniProt P34972)
# Chain of CB2 (P34972 whole entry, species assumed): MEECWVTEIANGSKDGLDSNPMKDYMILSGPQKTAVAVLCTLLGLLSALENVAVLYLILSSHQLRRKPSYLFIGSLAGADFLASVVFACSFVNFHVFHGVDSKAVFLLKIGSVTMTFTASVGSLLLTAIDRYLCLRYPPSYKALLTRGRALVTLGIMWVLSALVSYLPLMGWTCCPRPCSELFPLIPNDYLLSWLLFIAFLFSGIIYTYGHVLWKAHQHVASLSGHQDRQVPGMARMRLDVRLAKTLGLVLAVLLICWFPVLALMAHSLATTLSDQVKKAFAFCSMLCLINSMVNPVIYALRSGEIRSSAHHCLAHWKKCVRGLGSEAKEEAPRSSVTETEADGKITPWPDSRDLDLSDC
# CB1 = CB1 (Homo sapiens, UniProt P21554)
# Chain of CB1 (P21554 whole entry, species assumed): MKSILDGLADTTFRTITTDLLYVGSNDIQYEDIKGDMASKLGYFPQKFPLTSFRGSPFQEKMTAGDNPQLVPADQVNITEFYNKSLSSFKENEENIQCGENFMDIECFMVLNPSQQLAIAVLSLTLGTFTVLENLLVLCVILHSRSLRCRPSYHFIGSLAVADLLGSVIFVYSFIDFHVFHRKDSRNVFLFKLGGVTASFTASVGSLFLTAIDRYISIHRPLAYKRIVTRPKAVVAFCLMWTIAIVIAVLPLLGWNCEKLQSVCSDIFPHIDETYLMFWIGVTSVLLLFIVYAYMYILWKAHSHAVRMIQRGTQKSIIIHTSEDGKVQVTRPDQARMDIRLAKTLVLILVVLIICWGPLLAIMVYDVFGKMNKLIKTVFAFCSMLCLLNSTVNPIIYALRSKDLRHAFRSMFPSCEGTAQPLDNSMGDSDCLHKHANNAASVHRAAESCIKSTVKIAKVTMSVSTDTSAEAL
compound,measurement,setting,value
"C=C(C)[C@@H]1CCC(C)=C[C@H]1c1c(O)cc(CCCCC)cc1O [CBD, 2-[(1R,6R)-6-isopropenyl-3-methylcyclohex-2-en-1-yl]-5-pentylbenzene-1,3-diol]",knee-joint swelling,[1]; dose of 6.2 mg/day,reduce knee-joint swelling
same,knee-joint swelling,[1]; dose of 62 mg/day,failed to yield any additional improvement
CCCn1cc(C(=O)c2ccc(C)c3ccccc23)c2ccccc21 [JWH-120],selectivity for CB2 over CB1,CB2 receptor over CB1,173
CCCCCCC(C)(C)c1cc(O)c2c(c1)oc(=O)c1ccc(OC)cc12 [AM-1710],selectivity for CB2 over CB1,CB2 receptor over CB1,54
CCCn1c(C)c(C(=O)c2ccc(C)c3ccccc23)c2ccccc21 [JWH-148],selectivity for CB2 over CB1,CB2 receptor over CB1,more than 8
"CCCCCc1cc(O)c2c(c1)OC(C)(C)[C@@H]1CCC(C)=C[C@@H]21 [naturally derived delta-9-THC, (−)-(6aR,10aR)-6,6,9-Trimethyl-3-pentyl-6a,7,8,10a-tetrahydro-6H-benzo[c]chromen-1-ol]",skin permeability,[2],20 µg
"CCCCCCC(C)(C)c1cc(OC)c2c(c1)OC(C)(C)C1CCC(O)CC21 (stereo not drawn) [JWH-350, 11-nor-1-methoxy-3-(1′,1′-dimethylheptyl)-9α-hydroxyhexahydrocannabinol]",selectivity for CB2 over CB1,CB2 receptor over CB1,33
CCCCCn1cc(C(=O)c2cccc3cccc(Br)c23)c2ccccc21 [JWH-424],Ki,CB2,5.44 nM
same,Ki,CB1,20.9 nM
CCCCCn1cc(C(=O)c2ccc(Cl)c3ccccc23)c2ccccc21 [JWH-398],Ki,CB2,2.8 nM
same,Ki,CB1,2.3 nM
